Experimental data: patent publication US20140221301A1, “COMBINATION TREATMENT FOR CANCER” (priority 2011, published 2014)

Assays:
[1] = system: TEX cells; assay: ROS generation (DCF-DA, DHE) in TEX cells; assay type: cell-based, human; settings: time-points up to 24 hours
Protocol: FIG. 4. […] (A) Cells from TEX, OCI-AML2 and two primary AML patients were treated with increasing concentrations (2.5 μM and 5 μM) of tigecycline for 36 and 48 hours of tigecycline. Total proteins were extracted and analyzed by western blotting for Cox-1, Cox-2, Cox-4, grp78, XIAP, actin and tubulin. (B) TEX and AML patient cells were treated with increasing concentrations (2.5 μM and 5 μM) of tigecycline. Cox-1, Cox-2, and Cox-4 mRNA expression relative 18S was determined by quantitative RT-PCR. Data is shown as mean±SD. (C) TEX cells were treated with increasing concentrations of tigecycline and chloramphenicol (CAP) for 72 hours. Complex I, II and IV enzyme activity relative to citrate synthase activity was determined as described in materials and methods. (D) Cells from TEX, primary AML patients, and normal donors were treated with increasing concentrations of tigecycline. Mitochondrial membrane potential (ΔΨ) was determined by staining cells with JC-1 dye, and flow cytometry analysis (Red/Green ratio). Reactive oxygen species generation (ROS) was determined by staining with h2-DCFDA and Dihydroethidium (DHE).
A byproduct of the mitochondrial enzyme activities of the electron transport chain is the generation of reactive oxygen species (ROS). […] Therefore, the role of tigecycline on ROS generation in leukemia cells by analyzing hydrogen peroxide ions (H2O2) using a dichlorofluorescein dye (DCF-DA), and superoxide anions using dihydroethidium (DHE) was examined.

[2] = system: acute myeloid leukemia (AML); settings: 13 patients treated; cited from earlier work

Molecule | ROS generation [1] | complete remission [2] | partial remissions [2]
C=C(C)[C@H]1Cc2c(ccc3c2O[C@@H]2COc4cc(OC)c(OC)cc4[C@@H]2C3=O)O1 [rotenone] | rapid increases |  | 
NC(=O)c1ncn([C@@H]2O[C@H](CO)[C@@H](O)[C@H]2O)n1 [ribavirin] |  | 1 | 2
antimycin | rapid increases |  | 
CC[C@H]1/C=C/C=C/C[C@@H](C)[C@H](O)[C@@](C)(O)C(=O)[C@@H](C)[C@H](O)[C@@H](C)C(=O)[C@@H](C)[C@H](O)[C@@H](C)/C=C/C(=O)O[C@@H]2[C@H](C)[C@H](CC1)O[C@]1(CC[C@H](C)[C@H](C[C@@H](C)O)O1)[C@H]2C [oligomycin] | rapid increases |  | 
